# Experiments:
# [1] = In vitro human mitochondrial fraction intrinsic clearance of SPL026 and SPL028 analogues; details: for microsomal CLint: Intrinsic Clearance
# [2] = system: Human (mixed gender) hepatocytes; assay: In vitro intrinsic clearance in human hepatocytes with and without MAO inhibitors (first experiment); details: for Half-life % change / Intrinsic clearance % change: with MAO inhibitors vs no inhibitors
# [3] = as above; details: both, human, hepatocytes (pooled, 10 donors), human hepatocytes
# [4] = In vitro human mitochondrial fraction intrinsic clearance of SPL026 with/without MAO-A and MAO-B inhibitors; type: in vitro ADME; details: for half-life / microsomal CLint: 0.5 mg/mL human liver mitochondrial fraction
# [5] = In vitro intrinsic clearance in human hepatocytes, D2, D6 and D8 DMT (third experiment); details: both, hepatocytes (pooled, 10 donors)
# [6] = 0.5 mg/mL human liver mitochondrial fraction, first experiment r7-r12, repeat r13-r20
# [7] = human, liver mitochondrial fraction, Half-Life R1, human liver mitochondrial fraction, replicate R1
# [8] = human, liver mitochondrial fraction, Half-Life R2, human liver mitochondrial fraction, replicate R2
# [9] = human, liver mitochondrial fraction, Half-Life R3, human liver mitochondrial fraction, replicate R3
# [10] = human, liver mitochondrial fraction, Half-Life R4, human liver mitochondrial fraction, replicate R4
# [11] = human, liver mitochondrial fraction, 0.5 mg/mL human liver mitochondrial fraction, first experiment r7-r12, repeat r13-r20
# [12] = Half-life With inhibitors, with MAO-A/B inhibitor combination (Table 5)
# [13] = Half-life Without inhibitors, without MAO-A/B inhibitor combination (Table 5)
# [14] = Intrinsic clearance With inhibitors, with MAO-A/B inhibitor combination (Table 5)
# [15] = Intrinsic clearance Without inhibitors, without MAO-A/B inhibitor combination (Table 5)
# [16] = in vitro half-life With inhibitors, 5 μM, with 100 nM clorgyline and 100 nM Deprenyl/Selegiline (Table 4)
# [17] = in vitro half-life Without inhibitors, 5 μM, without MAO inhibitors (Table 4)
# [18] = with 100 nM Deprenyl/Selegiline (MAO-B inhibitor), Deprenyl (MAO-B inhibitor) 100 nM
# [19] = human, liver mitochondrial fraction, Half-life, 0.5 mg/mL human liver mitochondrial fraction, first experiment r7-r12, repeat r13-r20
# [20] = human hepatocytes, MAO inhibitors vs none
# [21] = with 100 nM clorgyline (MAO-A inhibitor), Clorgyline (MAO-A inhibitor) 100 nM
SMILES,"Intrinsic Clearance [1, 6] [μL/min/mg protein]","half-life [1, 7] [min]","half-life [1, 8] [min]","half-life [1, 9] [min]","half-life [1, 10] [min]","microsomal CLint [1, 11] [µL/min/mg]",Half-life % change ([2]; human hepatocytes) [%],Intrinsic clearance % change ([2]; human hepatocytes) [%],"half-life at 5 μM [3, 12] [min]","half-life at 5 μM [3, 13] [min]","hepatocyte CLint at 5 μM [3, 14] [µL/min/1e6 cells]","hepatocyte CLint at 5 μM [3, 15] [µL/min/1e6 cells]","half-life at 5 μM [3, 16] [min]","half-life at 5 μM [3, 17] [min]",half-life ([4]; DMSO Vehicle (no inhibitor)) [min],microsomal CLint ([4]; DMSO Vehicle (no inhibitor)) [µL/min/mg],half-life at 5 μM [5] [min],hepatocyte CLint at 5 μM [5] [µL/min/1e6 cells],"half-life [1, 6] [min]","half-life [1, 19] [min]",also measured
NCc1ccccc1 [Benzylamine],62.1,24.3,22.1,21.2,23.5,60,>83.41,<−450,460,76.3,< 3,16.7,460,76.3,30.4,45.7,–,–,–,–,"half-life [4, 18]: > 420 min; microsomal CLint [4, 18]: < 3.3 µL/min/mg"
O=C(O)Cc1ccccc1Nc1c(Cl)cccc1Cl [Diclofenac],–,–,–,–,–,–,–,–,–,–,–,–,–,–,–,–,20.7,92.5,–,–,–
COc1ccc([C@@H]2Sc3ccccc3N(CCN(C)C)C(=O)[C@@H]2OC(C)=O)cc1 [Diltiazem],–,–,–,–,–,–,–,–,–,–,–,–,–,–,–,–,87.3,22,–,–,–
"CN(C)CCc1c[nH]c2ccccc12 [SPL026, N,N-dimethyltryptamine]",161.0,8.8,8.4,7.6,8.3,175,3.82,−4.00,96.1,92.4,13.2,13.8,96.1,92.4,33.7,42.9,98.9,19.4,8.6,7.9,"slower intrinsic clearance with inclusion of MAO inhibitors [2, 20]: ~4%; increase in intrinsic clearance with MAO-A inhibitor (Clorgyline) compared to SPL026 without MAO inhibitors ([4]; human liver mitochondrial fraction): 10 fold; half-life [4, 18]: 32.5 min; microsomal CLint [4, 18]: 42.7 µL/min/mg; half-life [4, 21]: > 374 min; microsomal CLint [4, 21]: < 3.9 µL/min/mg"
"[2H]C([2H])(Cc1c[nH]c2ccccc12)N(C)C [SPL028i, α,α-dideutero-N,N-dimethyltryptamine]",–,86.1,99.4,82.6,72.1,–,−5.33,4.67,170,–,7.5,7.15,170,–,–,–,233,8.3,92.8,77.3,"quicker intrinsic clearance in the presence of MAO inhibitors [2, 20]: ~5%; change in intrinsic clearance and half-life compared to SPL026 ([2]; initial human hepatocyte studies): ~2 fold"
"[2H]C([2H])([2H])N(CCc1c[nH]c2ccccc12)C([2H])([2H])[2H] [SPL028vii, N,N-bis(trideutero)dimethyltryptamine]",–,–,–,9.4,10.9,137,–,–,–,–,–,–,–,–,–,–,–,–,–,10.2,–
"[2H]C([2H])([2H])N(C([2H])([2H])[2H])C([2H])([2H])Cc1c[nH]c2ccccc12 [SPL028viii, α,α-dideutero-N,N-bis(trideutero)dimethyltryptamine]",12.7,–,–,92.9,–,10.9,–,–,–,–,–,–,–,–,–,–,–,–,112.2,–,increase in metabolic stability ([1]; human mitochondrial fraction assays): 14 fold
NCCc1c[nH]c2ccc(O)cc12 [Serotonin],157.0,9.3,9.1,9.1,8.5,151,73.75,−282.18,–,33,10.1,38.6,–,33,11.1,125,–,–,–,–,"half-life [4, 21]: > 420 min; microsomal CLint [4, 21]: < 3.3 µL/min/mg"

# From patent publication US11471417B2 (Small Pharma Ltd, priority 2020, dated 2022)
